{
  "source": "patent US8637670B2",
  "about": "“Imidazo [4,5-C]quinoline derivatives and their use in the treatment of tumors and/or inflammation” (Piramal Enterprises Limited, priority 2009, dated 2014)",
  "type_in_all_cases": "cell-based",
  "key": {"HCT116": {"test_system": "HCT116", "assay": "Cytotoxicity, propidium iodide assay, HCT116", "conditions": "Homo sapiens, HCT-116; Colon, HCT116, 48 hours treatment; read-out: IC50, C4a (HCT116)", "method": "(§1) The assay was designed as in the reference, Anticancer Drugs, 2002, 13, 1-8, the disclosure of which is incorporated by reference for the teaching of the assay.\n(§2) Cells from cell lines as mentioned in the table given below were seeded at a density of 3000 cells/well in a white opaque 96-well plate. Following incubation at 37° C./5% CO2 for a period of 18-24 hours, the cells were treated with various concentrations (stock solution was prepared in DMSO and subsequent dilutions were made in media as per ATCC guidelines) of the compounds of Example 1-40 was for a period of 48 hours. At the end of treatment, the spent culture medium was discarded, the cells were washed with 1×PBS and 200 μl of 7 μg/ml propidium iodide was added to each well. The plates were frozen at −70° C. for at least 24 hours. For analysis, the plates were brought to RT, allowed to thaw and were read in PoleStar fluorimeter with the fluorescence setting. The percentage of viable cells in the non-treated set of wells was considered to be 100 and the percentage viability following treatment was calculated accordingly. IC50 values were calculated from graphs plotted using these percentages. Table 4 depicts the IC50 values of compounds of Example 1-40 in individual cell lines.\n(§3) The abbreviations for the Cell Lines as used in Table 4 are: […]"}, "IL-6": {"test_system": "IL-6", "assay": "Human monocyte assay, LPS-stimulated IL-6 (ELISA)", "conditions": "human monocytes, 1 μg/ml LPS, 5 hours", "method": "The assay was designed as in the reference, Physiol. Res., 2003, 52, 593-598, the disclosure of which is incorporated by reference for the teaching of the assay.\nPeripheral blood mononuclear cells (hPBMC) were harvested from human blood and suspended in RPMI 1640 culture medium containing 10% FCS, 100 U/mL penicillin and […] streptomycin (assay medium). Monocytes in the hPBMCs were counted using a Coulter Counter following which the cells were resuspended at 2×10^5 monocytes/mL. A cell suspension containing 2×10^4 monocytes was aliquoted per well of a 96-well plate. Subsequently, the hPBMCs were incubated for 4-5 hours at 37° C. under 5% CO2 (During the incubation, the monocytes adhered to the bottom of 96-well plastic culture plate). Following the incubation, the non-adherent lymphocytes were washed with assay medium and the adherent monocytes re-fed with assay medium. After a 48-hour incubation period (37° C., 5% CO2), monocytes were pretreated with various concentrations of compounds of Example 1-40 (prepared in DMSO) or vehicle (0.5% DMSO) for 30 minutes and stimulated with 1 μg/ml LPS (Escherchia coli 0111:B4, Sigma Chemical Co., St. Louis, Mo.). The incubation was continued for 5 hours at 37° C., 5% CO2. Supernatants were harvested, assayed for IL-6 and TNF-α by ELISA as described by the manufacturer (BD Biosciences, USA). Dexamethasone (10 μM) was used as standard for this assay. The 50% inhibitory concentration (IC50) values were calculated by a nonlinear regression method. In all experiments, a parallel plate was run to ascertain the toxicity of compounds of Example 1-40. The toxicity was determined using the MTS assay as described in Am. J. Physiol. Cell Physiol., 2003, 285, C813-C822."}, "A2780": {"test_system": "A2780", "assay": "Cytotoxicity, propidium iodide assay, A2780", "conditions": "Homo sapiens; Ovarian, A2780, 48 hours treatment; read-out: IC50, C3a (A2780)", "method": "as §1, §2, §3"}, "A549": {"test_system": "A549", "assay": "Cytotoxicity, propidium iodide assay, A549", "conditions": "Homo sapiens; Lung, A549, 48 hours treatment; read-out: IC50, C1a (A549)", "method": "as §1, §2, §3"}, "PANC 1": {"test_system": "PANC 1", "assay": "Cytotoxicity, propidium iodide assay, PANC 1", "conditions": "Homo sapiens; Pancreatic, PANC 1, 48 hours treatment; read-out: IC50, C5a (PANC 1)", "method": "as §1, §2, §3"}, "U 87 MG": {"test_system": "U 87 MG", "assay": "Cytotoxicity, propidium iodide assay, U 87 MG", "conditions": "Homo sapiens, Glioblastoma, 48 hours treatment, read-out: IC50, C7b (U 87 MG)", "method": "as §1, §2, §3"}, "U 373": {"test_system": "U 373", "assay": "Cytotoxicity, propidium iodide assay, U 373", "conditions": "Homo sapiens, U373 MG; Glioblastoma, U 373, 48 hours treatment; read-out: IC50, C7a (U 373)", "method": "as §1, §2, §3"}, "PC3": {"test_system": "PC3", "assay": "Cytotoxicity, propidium iodide assay, PC3", "conditions": "Homo sapiens, PC-3; Prostate, PC3, 48 hours treatment; read-out: IC50, C2a (PC3)", "method": "as §1, §2, §3"}, "OVCAR 3": {"test_system": "OVCAR 3", "assay": "Cytotoxicity, propidium iodide assay, OVCAR 3", "conditions": "Homo sapiens; Ovarian, OVCAR 3, 48 hours treatment; read-out: IC50, C3b (OVCAR 3)", "method": "as §1, §2, §3"}, "H460": {"test_system": "H460", "assay": "Cytotoxicity, propidium iodide assay, H460", "conditions": "Homo sapiens, NCI-H460; Lung, H460, 48 hours treatment; read-out: IC50, C1b (H460)", "method": "as §1, §2, §3"}},
  "data": [
    {"smiles": "CC(C)(C#N)c1ccc(-n2c(=O)n(S(=O)(=O)c3cccc(Br)c3)c3cnc4ccc(Br)cc4c32)cc1", "note": "[Example 15, 2-(4-(8-Bromo-3-(3-bromophenylsulfonyl)-2-oxo-2,3-dihydro-1H-imidazo[4,5-c]quinolin-1-yl)phenyl)-2-methylpropanenitrile]", "values": [
      {"measurement": "IC50", "setting": "HCT116", "result": "1 to 3", "unit": "µM"},
      {"measurement": "IC50", "setting": "IL-6", "result": "1 to 10", "unit": "µM"},
      {"measurement": "IC50", "setting": "A2780", "result": "> 3", "unit": "µM"},
      {"measurement": "IC50", "setting": "A549", "result": "> 3", "unit": "µM"},
      {"measurement": "IC50", "setting": "PANC 1", "result": "> 3", "unit": "µM"}
    ]},
    {"smiles": "Cc1ccc(S(=O)(=O)n2c(=O)n(-c3ccc(C(C)(C)C#N)cc3)c3c4cc(Br)ccc4ncc32)cc1F", "note": "[Example 5, 2-(4-(8-Bromo-3-(3-fluoro-4-methylphenylsulfonyl)-2-oxo-2,3-dihydro-1H-imidazo[4,5-c]quinolin-1-yl)phenyl)-2-methylpropanenitrile]", "values": [
      {"measurement": "IC50", "setting": "U 87 MG", "result": "1 to 3", "unit": "µM"},
      {"measurement": "IC50", "setting": "HCT116", "result": "> 3", "unit": "µM"},
      {"measurement": "IC50", "setting": "U 373", "result": "> 3", "unit": "µM"},
      {"measurement": "IC50", "setting": "PC3", "result": "1 to 3", "unit": "µM"},
      {"measurement": "IC50", "setting": "A549", "result": "1 to 3", "unit": "µM"},
      {"measurement": "IC50", "setting": "OVCAR 3", "result": "> 3", "unit": "µM"},
      {"measurement": "IC50", "setting": "H460", "result": "1 to 3", "unit": "µM"}
    ]},
    {"smiles": "CC(C)(C#N)c1ccc(-n2c(=O)n(S(=O)(=O)c3ccc(OC(F)(F)F)cc3)c3cnc4ccc(Br)cc4c32)cc1", "note": "[Example 1, 2-(4-(8-Bromo-2-oxo-3-(4-(trifluoromethoxy)phenylsulfonyl)-2,3-dihydro-1H-imidazo[4,5-c]quinolin-1-yl)phenyl)-2-methylpropanenitrile]", "values": [
      {"measurement": "IC50", "setting": "IL-6", "result": "10 to 30", "unit": "µM"},
      {"measurement": "IC50", "setting": "U 373", "result": "> 3", "unit": "µM"},
      {"measurement": "IC50", "setting": "PC3", "result": "1 to 3", "unit": "µM"},
      {"measurement": "IC50", "setting": "A2780", "result": "≤ 1", "unit": "µM"},
      {"measurement": "IC50", "setting": "OVCAR 3", "result": "1 to 3", "unit": "µM"},
      {"measurement": "IC50", "setting": "H460", "result": "1 to 3", "unit": "µM"}
    ]},
    {"smiles": "COc1ccc(NC(=O)n2c(=O)n(-c3ccc(C(C)(C)C#N)cc3)c3c4cc(Br)ccc4ncc32)cc1", "note": "[Example 31, 8-Bromo-1-(4-(2-cyanopropan-2-yl)phenyl)-N-(4-methoxyphenyl)-2-oxo-1H-imidazo[4,5-c]quinoline-3(2H)-carboxamide]", "values": [
      {"measurement": "IC50", "setting": "HCT116", "result": "> 3", "unit": "µM"},
      {"measurement": "IC50", "setting": "A2780", "result": "> 3", "unit": "µM"},
      {"measurement": "IC50", "setting": "A549", "result": "1 to 3", "unit": "µM"},
      {"measurement": "IC50", "setting": "PANC 1", "result": "> 3", "unit": "µM"}
    ]},
    {"smiles": "Cc1ccc([N+](=O)[O-])cc1S(=O)(=O)n1c(=O)n(-c2ccc(C(C)(C)C#N)cc2)c2c3cc(Br)ccc3ncc21", "note": "[Example 4, 2-(4-(8-Bromo-3-(2-methyl-5-nitrophenylsulfonyl)-2-oxo-2,3-dihydro-1H-imidazo[4,5-c]quinolin-1-yl)phenyl)-2-methylpropanenitrile]", "values": [
      {"measurement": "IC50", "setting": "U 87 MG", "result": "1 to 3", "unit": "µM"},
      {"measurement": "IC50", "setting": "HCT116", "result": "> 3", "unit": "µM"},
      {"measurement": "IC50", "setting": "IL-6", "result": "1 to 10", "unit": "µM"},
      {"measurement": "IC50", "setting": "U 373", "result": "> 3", "unit": "µM"},
      {"measurement": "IC50", "setting": "PC3", "result": "1 to 3", "unit": "µM"},
      {"measurement": "IC50", "setting": "A549", "result": "1 to 3", "unit": "µM"},
      {"measurement": "IC50", "setting": "OVCAR 3", "result": "> 3", "unit": "µM"},
      {"measurement": "IC50", "setting": "H460", "result": "1 to 3", "unit": "µM"}
    ]},
    {"smiles": "CC(C)(C#N)c1ccc(-n2c(=O)n(S(=O)(=O)c3cccc4cccnc34)c3cnc4ccc(Br)cc4c32)cc1", "note": "[Example 11, 2-(4-(8-Bromo-2-oxo-3-(quinolin-8-ylsulfonyl)-2,3-dihydro-1H-imidazo[4,5-c]quinolin-1-yl)phenyl)-2-methylpropanenitrile]", "values": [
      {"measurement": "IC50", "setting": "HCT116", "result": "> 3", "unit": "µM"},
      {"measurement": "IC50", "setting": "IL-6", "result": "> 30", "unit": "µM"},
      {"measurement": "IC50", "setting": "A2780", "result": "> 3", "unit": "µM"},
      {"measurement": "IC50", "setting": "A549", "result": "> 3", "unit": "µM"},
      {"measurement": "IC50", "setting": "PANC 1", "result": "> 3", "unit": "µM"}
    ]},
    {"smiles": "CC(C)(C#N)c1ccc(-n2c(=O)n(S(=O)(=O)c3cccs3)c3cnc4ccc(Br)cc4c32)cc1", "note": "[Example 9, 2-(4-(8-Bromo-2-oxo-3-(thiophen-2-ylsulfonyl)-2,3-dihydro-1H-imidazo[4,5-c]quinolin-1-yl)phenyl)-2-methylpropanenitrile]", "values": [
      {"measurement": "IC50", "setting": "HCT116", "result": "> 3", "unit": "µM"},
      {"measurement": "IC50", "setting": "IL-6", "result": "10 to 30", "unit": "µM"},
      {"measurement": "IC50", "setting": "A2780", "result": "≤ 1", "unit": "µM"},
      {"measurement": "IC50", "setting": "A549", "result": "1 to 3", "unit": "µM"},
      {"measurement": "IC50", "setting": "PANC 1", "result": "> 3", "unit": "µM"}
    ]},
    {"smiles": "CC(C)(C#N)c1ccc(-n2c(=O)n(S(=O)(=O)c3cccc(F)c3)c3cnc4ccc(Br)cc4c32)cc1", "note": "[Example 10, 2-(4-(8-Bromo-3-(3-fluorophenylsulfonyl)-2-oxo-2,3-dihydro-1H-imidazo[4,5-c]quinolin-1-yl)phenyl)-2-methylpropanenitrile]", "values": [
      {"measurement": "IC50", "setting": "HCT116", "result": "1 to 3", "unit": "µM"},
      {"measurement": "IC50", "setting": "IL-6", "result": "> 30", "unit": "µM"},
      {"measurement": "IC50", "setting": "A2780", "result": "1 to 3", "unit": "µM"},
      {"measurement": "IC50", "setting": "A549", "result": "1 to 3", "unit": "µM"},
      {"measurement": "IC50", "setting": "PANC 1", "result": "> 3", "unit": "µM"}
    ]}
  ]
}
